This note sets out measurements from patent US7700616B2, “Compounds and amyloid probes thereof for therapeutic and imaging uses” (Molecular Neuroimaging, LLC., priority 2006, dated 2010).

SMILES strings stand for the structures.

Data set [1] in a line: Protein binding (free ligand fraction in plasma). It counts as in vitro ADME. The settings on record: obtained amyloid probe. On the procedure: (§1) The labeling of the compounds of the invention was carried out under standard conditions (Na^123/125I, oxidizer, acidic medium) at ambient temperature. Radiochemical yields averaged 35-90%. The labeled compounds were readily purified by reverse-phase HPLC, and their radiochemical purity exceeded 95%.

Data set [2] is described as follows: Lipophilicity (LogD). The settings on record: pH 7.4; obtained amyloid probe. It counts as physicochemical. As for the experimental part: as §1

Usually logD stands for the decadic logarithm of the distribution of all forms, ionised or not, between an organic phase and buffer at a given pH. The low end stands for a more hydrophilic compound, the high end for a more lipophilic compound. Turning to `CN(C)c1ccc(-n2nc3ccc(I)cc3n2)cc1` [MNI-187], in data set [1], the “free ligand fraction in plasma” value is listed as 4%. For the same compound, the logD in data set [2] was 2.7.
